The text below walks through data of patent publication US11319299B2, “Substituted carboxamides as inhibitors of WDR5 protein-protein binding” (PROPELLON THERAPEUTICS INC., priority 2016, dated 2022).

The term IC50 denotes the concentration needed to halve the response being measured. For orientation: Kd means the concentration at which binding is half-saturated.

For one test, the system named is MV4-11 cells. Kind of test: Cell proliferation assay (ATPlite). The test is classed as cell-based. The note with it: MV-411 cells, five days, read-out: In vitro whole cell potency in MV-411 cells, (IC50). The protocol:
(iv) Cell Proliferation Assay
MV4-11 cells were seeded into a 96-well plate at 1,000 cells/well in 150 μl medium (Alpha-MEM containing 10% FBS, 100 μg/ml Normocin, and 50 μg/ml Gentamycin, Invitrogen). A HP D300 digital dispenser was used to dose cells with DMSO or test compounds across a 10-point range of concentrations (high dose of 10 μM), and cultures were grown in a humidified 5% CO2 incubator at 37° C. After five days, plates were removed from the incubator and equilibrated to room temperature. An equal volume of ATPlite assay reagent was added to each well, and samples were processed according to manufacturer's instructions (Perkin Elmer). Luminescent signal was measured using an Envision plate reader equipped with a US-Luminescence detector.

The next test addresses WDR5 (Homo sapiens (Human), UniProt P61964). Description: Surface Plasmon Resonance (SPR) assay, KD and residence time. The conditions noted are these: read-out: WDR5 binding affinity (KD). The test is classed as binding.
The mark [1] stands for this setting: surface plasmon resonance (SPR).
The mark [2] stands for this setting: surface plasmon resonance (SPR) assay.

Like-named read-outs stand apart in the source and are kept apart here. Bounds are passed on as bounds.

On to “4-(difluoromethyl)-N-[4-fluoro-5-[2-[(3R)-3-methylmorpholin-4-yl]pyrimidin-5-yl]-2-[(3S,5R)-3,4,5-trimethylpiperazin-1-yl]phenyl]-6-oxo-1H-pyridine-3-carboxamide [Example 521]”, for which, in the test on MV4-11 cells, the IC50 is 68 nM. On WDR5 (setting [1]), the dissociation constant Kd was determined as 0.579 nM.

On to `C[C@@H]1CN(c2ncc(-c3cc(NC(=O)c4ccc(F)cc4C(F)(F)F)c(N4CCN(C)[C@@H](C)C4)cc3F)cn2)C[C@H](C)O1` (racemic) [Example 430, 4-fluoro-N-[4-fluoro-5-[2-[(2R,6S)-2,6-dimethylmorpholin-4-yl]pyrimidin-5-yl]-2-[(3R)-3,4-dimethylpiperazin-1-yl]phenyl]-2-(trifluoromethyl)benzamide], for which the IC50 in the test with MV4-11 cells (Homo sapiens, MV4-11, 120 h) came out at 49 nM. For the same compound, the Kd on WDR5 (setting [1]) was determined as 0.296 nM.

As to `C[C@@H]1CN(c2cc(F)c(-c3cnc(N4CCO[C@@H](C)C4)nc3)cc2NC(=O)c2cn(C)c(=O)cc2C(F)(F)F)C[C@H](C)N1C` (racemic) [Example 451, N-[4-fluoro-5-[2-[(2R)-2-methylmorpholin-4-yl]pyrimidin-5-yl]-2-[(3S,5R)-3,4,5-trimethylpiperazin-1-yl]phenyl]-1-methyl-6-oxo-4-(trifluoromethyl)pyridine-3-carboxamide], the IC50 in the test with MV4-11 cells (Homo sapiens, MV4-11, 120 h) came to 92 nM. Besides, on WDR5 (setting [1]), the Kd worked out at 1.72 nM.

As for `CC1CN(c2cc(F)c(-c3cnc(C#N)nc3)cc2NC(=O)c2c[nH]c(=O)cc2C(F)(F)F)CCN1C` (stereo in doubt) [Example 197, N-[5-(2-cyanopyrimidin-5-yl)-4-fluoro-2-[(3R)-3,4-dimethylpiperazin-1-yl]phenyl]-6-oxo-4-(trifluoromethyl)-1H-pyridine-3-carboxamide], the IC50 in the test on MV4-11 cells (Homo sapiens, MV4-11, 120 h) was 44 nM. Further, the Kd at WDR5 (setting [2]) is 0.681 nM.

With `CC1CN(c2cc(F)c(-c3cnc(N4C[C@@H](C)O[C@@H](C)C4)nc3)cc2NC(=O)c2c[nH]c(=O)cc2C(F)(F)F)CCN1C` (stereo in doubt) [Example 202, N-[4-fluoro-5-[2-[(2R,6S)-2,6-dimethylmorpholin-4-yl]pyrimidin-5-yl]-2-[(3R)-3,4-dimethylpiperazin-1-yl]phenyl]-6-oxo-4-(trifluoromethyl)-1H-pyridine-3-carboxamide], the IC50 with MV4-11 cells (Homo sapiens, MV4-11, 120 h) came to 20 nM. Also, the Kd on WDR5 (setting [2]) is 0.434 nM.

Regarding `CC1CN(c2cc(F)c(-c3cnc(N4CCN(C)CC4)nc3)cc2NC(=O)c2cn(C)c(=O)cc2C(F)(F)F)CCN1C` (stereo in doubt) [Example 279, N-[4-fluoro-5-[2-(4-methylpiperazin-1-yl)pyrimidin-5-yl]-2-[(3R)-3,4-dimethylpiperazin-1-yl]phenyl]-1-methyl-6-oxo-4-(trifluoromethyl)pyridine-3-carboxamide], the IC50 with MV4-11 cells (Homo sapiens, MV4-11, 120 h) was determined as 118 nM. Also, the Kd on WDR5 (setting [2]) turned out to be 2.08 nM.

Consider `CC1CN(c2cc(F)c(-c3ccc(N4C[C@@H](C)O[C@@H](C)C4)nc3)cc2NC(=O)c2c[nH]c(=O)cc2C(F)(F)F)CCN1C` (stereo in doubt) [Example 341, N-[4-fluoro-5-[6-[(2R,6S)-2,6-dimethylmorpholin-4-yl]pyridin-3-yl]-2-[(3R)-3,4-dimethylpiperazin-1-yl]phenyl]-6-oxo-4-(trifluoromethyl)-1H-pyridine-3-carboxamide], for which, in the test with MV4-11 cells (Homo sapiens, MV4-11, 120 h), the IC50 came to 52 nM. The equilibrium dissociation constant (Kd) at WDR5 (setting [2]) was 1.97 nM.

Take `CC(C)C1CN(c2ncc(-c3cc(NC(=O)c4c[nH]c(=O)cc4C(F)(F)F)c(N4C[C@@H](C)N(C)[C@@H](C)C4)cc3F)cn2)CCO1` (stereo in doubt) [Example 348, N-[4-fluoro-5-[2-[(2R)-2-propan-2-ylmorpholin-4-yl]pyrimidin-5-yl]-2-[(3S,5R)-3,4,5-trimethylpiperazin-1-yl]phenyl]-6-oxo-4-(trifluoromethyl)-1H-pyridine-3-carboxamide]: the IC50 in the test on MV4-11 cells (Homo sapiens, MV4-11, 120 h) was 42 nM. Besides, the Kd on WDR5 (setting [2]) came out at 2.28 nM.

As for `CC1CN(c2cc(F)c(-c3cnc(N4C[C@@H](C)O[C@@H](C)C4)nc3)cc2NC(=O)c2cn(C)c(=O)cc2C(F)F)CCN1C` (stereo in doubt) [Example 383, 4-(difluoromethyl)-N-[4-fluoro-5-[2-[(2R,6S)-2,6-dimethylmorpholin-4-yl]pyrimidin-5-yl]-2-[(3R)-3,4-dimethylpiperazin-1-yl]phenyl]-1-methyl-6-oxopyridine-3-carboxamide], the IC50 with MV4-11 cells (Homo sapiens, MV4-11, 120 h) is 149 nM. On WDR5 (setting [2]), the Kd amounted to 1.19 nM.

Turning to `C[C@@H]1CN(c2ncc(-c3cc(NC(=O)c4c[nH]c(=O)cc4C(F)F)c(N4CCN(C)[C@H](C)C4)cc3F)cn2)CCO1` (stereo in doubt) [Example 398, 4-(difluoromethyl)-N-[4-fluoro-2-[(3R)-3,4-dimethylpiperazin-1-yl]-5-[2-[(2R)-2-methylmorpholin-4-yl]pyrimidin-5-yl]phenyl]-6-oxo-1H-pyridine-3-carboxamide], the IC50 with MV4-11 cells (Homo sapiens, MV4-11, 120 h) is 44 nM. On WDR5 (setting [1]), the Kd came to 0.899 nM.

`CC1CN(c2cc(F)c(-c3cnc(N4CCOCC4)nc3)cc2NC(=O)c2c[nH]c(=O)cc2C(F)F)CCN1C` (stereo in doubt) [Example 410, 4-(difluoromethyl)-N-[4-fluoro-5-(2-morpholin-4-ylpyrimidin-5-yl)-2-[(3R)-3,4-dimethylpiperazin-1-yl]phenyl]-6-oxo-1H-pyridine-3-carboxamide]: the half-inhibitory concentration (IC50) with MV4-11 cells (Homo sapiens, MV4-11, 120 h) came to 63 nM. In addition, on WDR5 (setting [1]), the Kd was found to be 0.84 nM.

`CCN(C)C1CCN(c2cc(F)c(-c3cnc(N4C[C@@H](C)O[C@@H](C)C4)nc3)cc2NC(=O)c2c[nH]c(=O)cc2C(F)(F)F)C1` (stereo in doubt) [Example 418, N-[4-fluoro-5-[2-[(2R,6S)-2,6-dimethylmorpholin-4-yl]pyrimidin-5-yl]-2-[(3S)-3-[ethyl(methyl)amino]pyrrolidin-1-yl]phenyl]-6-oxo-4-(trifluoromethyl)-1H-pyridine-3-carboxamide]: in the test on MV4-11 cells (Homo sapiens, MV4-11, 120 h), the IC50 was determined as 70 nM. Also, the Kd on WDR5 (setting [1]) was 1.05 nM.

In the case of `C[C@@H]1CN(c2ncc(-c3cc(NC(=O)c4ccc(F)cc4C(F)(F)F)c(N4CCN(C)[C@H](C)C4)cc3F)cn2)CCO1` (stereo in doubt) [Example 452, 4-fluoro-N-[4-fluoro-2-[(3R)-3,4-dimethylpiperazin-1-yl]-5-[2-[(2R)-2-methylmorpholin-4-yl]pyrimidin-5-yl]phenyl]-2-(trifluoromethyl)benzamide], the IC50 in the test with MV4-11 cells (Homo sapiens, MV4-11, 120 h) worked out at 62 nM. Moreover, at WDR5 (setting [1]), the Kd was found to be 0.493 nM.

With `CC1CN(c2cc(F)c(-c3cnc(N4CCNCC4)nc3)cc2NC(=O)c2cn(C)c(=O)cc2C(F)(F)F)CCN1C` (stereo in doubt) [Example 464, N-[4-fluoro-5-(2-piperazin-1-ylpyrimidin-5-yl)-2-[(3R)-3,4-dimethylpiperazin-1-yl]phenyl]-1-methyl-6-oxo-4-(trifluoromethyl)pyridine-3-carboxamide], the IC50 with MV4-11 cells (Homo sapiens, MV4-11, 120 h) was determined as 49 nM. Moreover, on WDR5 (setting [1]), the Kd came to 2.21 nM.

On to `CN(C)C1CCN(c2cc(F)c(-c3cccc(CN4CCOCC4)c3)cc2NC(=O)c2c[nH]c(=O)cc2C(F)(F)F)C1` (centres unmarked) [Example 53, N-(4-(3-(dimethylamino)pyrrolidin-1-yl)-6-fluoro-3′-(morpholinomethyl)-[1,1′-biphenyl]-3-yl)-6-oxo-4-(trifluoromethyl)-1,6-dihydropyridine-3-carboxamide], for which the IC50 in the test with MV4-11 cells (Homo sapiens, MV4-11, 120 h) is above 10000 nM.

Consider `COc1cc(N2C[C@@H](C)N(C)[C@@H](C)C2)c(NC(=O)c2c[nH]c(=O)cc2C(F)(F)F)cc1-c1cnc(N2CCOCC2)nc1` [Example 55, N-[4-methoxy-5-(2-morpholin-4-ylpyrimidin-5-yl)-2-[(3R,5S)-3,4,5-trimethylpiperazin-1-yl]phenyl]-6-oxo-4-(trifluoromethyl)-1H-pyridine-3-carboxamide], for which, in the test on MV4-11 cells (Homo sapiens, MV4-11, 120 h), the IC50 was 389 nM.

For the compound `CN1CCN(c2ccc(-c3cnc(N4CCOCC4)nc3)cc2NC(=O)c2c[nH]c(=O)cc2C(F)(F)F)CC1` [Example 56, N-(2-(4-methylpiperazin-1-yl)-5-(2-morpholinopyrimidin-5-yl)phenyl)-6-oxo-4-(trifluoromethyl)-1,6-dihydropyridine-3-carboxamide], in the test on MV4-11 cells (Homo sapiens, MV4-11, 120 h), the IC50 was 435 nM.

`C[C@@H]1CN(c2ccc(-c3cnc(N4CCOCC4)nc3)cc2NC(=O)c2c[nH]c(=O)cc2C(F)(F)F)C[C@H](C)N1C` [Example 58, N-(5-(2-morpholinopyrimidin-5-yl)-2-((3R,5S)-3,4,5-trimethylpiperazin-1-yl)phenyl)-6-oxo-4-(trifluoromethyl)-1,6-dihydropyridine-3-carboxamide]: the IC50 in the test with MV4-11 cells (Homo sapiens, MV4-11, 120 h) worked out at 1470 nM.

With `C[C@@H]1CN(c2ncc(-c3cc(NC(=O)c4c[nH]c(=O)cc4C(F)F)c(N4CCN(C)[C@@H](C)C4)cc3F)cn2)C[C@H](C)O1` [Example 395, 4-(difluoromethyl)-N-[4-fluoro-5-[2-[(2R,6S)-2,6-dimethylmorpholin-4-yl]pyrimidin-5-yl]-2-[(3S)-3,4-dimethylpiperazin-1-yl]phenyl]-6-oxo-1H-pyridine-3-carboxamide], the IC50 with MV4-11 cells (Homo sapiens, MV4-11, 120 h) turned out to be 31 nM.

Regarding `C[C@@H]1CN(c2cc(F)c(-c3cccc(N4CCOCC4)n3)cc2NC(=O)c2c[nH]c(=O)cc2C(F)(F)F)C[C@H](C)N1C` [Example 473, N-[4-fluoro-5-(6-morpholin-4-ylpyridin-2-yl)-2-[(3R,5S)-3,4,5-trimethylpiperazin-1-yl]phenyl]-6-oxo-4-(trifluoromethyl)-1H-pyridine-3-carboxamide], the IC50 in the test with MV4-11 cells (Homo sapiens, MV4-11, 120 h) was determined as 32 nM.

With `C[C@@H]1CN(c2cc(F)c(-c3ccnc(N(C)C)n3)cc2NC(=O)c2c[nH]c(=O)cc2C(F)(F)F)C[C@H](C)N1C` [Example 540, N-[5-[2-(dimethylamino)pyrimidin-4-yl]-4-fluoro-2-[(3R,5S)-3,4,5-trimethylpiperazin-1-yl]phenyl]-6-oxo-4-(trifluoromethyl)-1H-pyridine-3-carboxamide], the IC50 in the test on MV4-11 cells (Homo sapiens, MV4-11, 120 h) turned out to be 27 nM.
